Experimental data: patent publication US20220207902A1, “SYSTEM AND METHOD FOR AUTOMATICALLY DISCOVERING, CHARACTERIZING, CLASSIFYING AND SEMI-AUTOMATICALLY LABELING ANIMAL BEHAVIOR AND QUANTITATIVE PHENOTYPING OF BEHAVIORS IN ANIMALS” (President and Fellows of Harvard College, priority 2012, published 2022)
“Also recorded” adds a separate entry of the source.

How the values were obtained:
[1] = test system: mice; experiment: conventional two-compartment behavioral choice assay (odor-soaked filter paper); type: in vivo; details: odors soaked into filter papers placed in the small compartment of a cage divided by a parafilm curtain; FIGS. 4A and 4B
Source text: (§1) FIGS. 4A-4E depict assessment of odor-driven innate behaviors in two and three dimensions. FIGS. 4A and B depict a conventional two-compartment behavioral choice assay. FIG. 4C, left, depicts a new behavioral arena. FIG. 4C, right, depicts a chart generated through use of custom-written Matlab code to track animal trajectories.
(§2) FIGS. 4A-4E depict the assessment of odor-driven innate behaviors in two and three dimensions. […] Odors are soaked into filter papers, which are placed in the small compartment of a cage divided by a parafilm curtain. This assay suffers from incomplete control of gas-phase odorant concentration, poorly defined spatial odor gradients and experimental variability due to the physical interaction of the animal with the odor source. The present inventors have therefore developed a new behavioral arena (FIG. 4C, left), in which odors are delivered to each of 4 corners in gas phase via high-performance computer-controlled Teflon valves.

[2] = test system: mice; experiment: odor quadrant arena, odors delivered in gas phase to one of four corners, animal tracked by 2D tracking or depth camera; type: in vivo
Source text: as §1, §2
Odors are delivered to one of four quadrants via computer-controlled olfactometers, which can deliver precisely timed pulses or square waves of odorants at defined concentrations. […]

| Structure (SMILES) | innate behavioral response to odor (attraction or avoidance) [1] | posture (aspect ratio versus height) by depth camera ([2]; depth camera, compared with control conditions (stretched and low to the ground), FIG. 4E) | qualitative and quantitative avoidance behavior ([2]; odor delivered in gas phase in the upper right corner, FIG. 4D) |
| --- | --- | --- | --- |
| Cc1cnc(C)cn1 [2,5-DMP] | avoidance |  |  |
| CCCCCC(C)=O [2-heptanone] | avoidance |  |  |
| CC1=NC(C)SC1C (stereo not shown) [TMT] | avoidance | become compressed (from the perspective of the overhead camera) and elevate their noses | avoidance behaviors that are extraordinarily robust and well controlled; also recorded: avoidance behavior |
| CCCC(=O)O [butyric acid] | avoidance |  |  |
| C=CCc1ccc(O)c(OC)c1 [eugenol] | robust innate behavioral attraction |  |  |
